Test results: PubChem BioAssay AID248 (DTP/NCI, 2004)
Where “and” joins values, the source holds several entries; their conditions need not be identical. Identical values can stand only once. Toxic doses and inconclusive results are not listed. No stated cut-off is given here; in the data, active means T/C of 150% or more; inactive means T/C below 125%.

Test system: L1210 leukemia ip in BDF1 mice, survival T/C
Experiment: NCI In Vivo Anticancer Drug Screen. Data for tumor model L1210 Leukemia (intraperitoneal) in B6D2F1 (BDF1) mice
Settings: endpoint: mean survival time, higher = longer survival
Summary of the method: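 In this screen, tumor-bearing mice given compound are compared to those given vehicle, and their survival values are reported as a treated-to-control quotient.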

[1] = dose: 25.0 mg/kg/injection, schedule: Q04DX003 (ip), vehicle: Klucel (hydroxypropylcellulose) (HPC)
[2] = dose: 50.0 mg/kg/injection, schedule: Q04DX003 (ip), vehicle: Klucel (hydroxypropylcellulose) (HPC)
[3] = dose: 100.0 mg/kg/injection, schedule: Q04DX003 (ip), vehicle: Klucel (hydroxypropylcellulose) (HPC)
[4] = dose: 100.0 mg/kg/injection, schedule: Q04DX003 (ip), vehicle: saline with Tween-80
[5] = dose: 200.0 mg/kg/injection, schedule: Q04DX003 (ip), vehicle: saline with Tween-80
[6] = dose: 100.0 mg/kg/injection, schedule: Q04DX003 (ip), vehicle: saline
[7] = dose: 200.0 mg/kg/injection, schedule: Q04DX003 (ip), vehicle: saline
[8] = dose: 400.0 mg/kg/injection, schedule: Q04DX003 (ip), vehicle: saline

Measured: T/C

NC(=O)C(=O)NCCCN1CC1
inactive: dose: 12.5 mg/kg/injection, schedule: Q04DX003 (ip), vehicle: Klucel (hydroxypropylcellulose) (HPC) 102 % of control | [1] 98 % of control | [2] 106 % of control | [3] 118 % of control

NC(=O)c1ccc[n+](CCc2c[nH]c3ccccc23)c1
inactive: dose: 75.0 mg/kg/injection, schedule: Q01DX001 (ip), vehicle: saline with Tween-80 94 % of control | dose: 150.0 mg/kg/injection, schedule: Q01DX001 (ip), vehicle: saline with Tween-80 101 % of control | dose: 300.0 mg/kg/injection, schedule: Q01DX001 (ip), vehicle: saline with Tween-80 98 % of control

O=C(NC1CCCCC1)Oc1cccc(NC(=S)Nc2ccccc2)c1
inactive: dose: 100.0 mg/kg/injection, schedule: Q01DX009 (ip), vehicle: Klucel (hydroxypropylcellulose) (HPC) 100 % of control | dose: 200.0 mg/kg/injection, schedule: Q01DX009 (ip), vehicle: Klucel (hydroxypropylcellulose) (HPC) 97 % of control | dose: 400.0 mg/kg/injection, schedule: Q01DX009 (ip), vehicle: Klucel (hydroxypropylcellulose) (HPC) 92 % of control

CCO/C([O-])=C/[P+](c1ccccc1)(c1ccccc1)c1ccccc1
inactive: dose: 12.5 mg/kg/injection, schedule: Q01DX009 (ip), vehicle: Klucel (hydroxypropylcellulose) (HPC) 103 % of control | dose: 25.0 mg/kg/injection, schedule: Q01DX009 (ip), vehicle: Klucel (hydroxypropylcellulose) (HPC) 106 % of control | [1] 103 % of control | dose: 50.0 mg/kg/injection, schedule: Q01DX009 (ip), vehicle: Klucel (hydroxypropylcellulose) (HPC) 103 % of control | [2] 103 % of control | [3] 96 % of control

O=[N+]([O-])c1cnccc1Nc1ccncc1
inactive: [4] 98 % of control | [5] 94 % of control

NC(N)=N/N=C/Cc1ccccc1
inactive: dose: 62.5 mg/kg/injection, schedule: Q01DX Z (ip), vehicle: saline 94 % of control

Nc1cc([N+](=O)[O-])cnc1NCCc1ccccc1
inactive: [4] 97 % of control | [5] 98 % of control | dose: 400.0 mg/kg/injection, schedule: Q04DX003 (ip), vehicle: saline with Tween-80 104 % of control

NC(CSS(=O)(=O)O)=NCCCc1nc2ccccc2[nH]1
inactive: dose: 100.0 mg/kg/injection, schedule: Q04DX002 (ip), vehicle: Klucel (hydroxypropylcellulose) (HPC) 106 % of control | dose: 200.0 mg/kg/injection, schedule: Q04DX002 (ip), vehicle: Klucel (hydroxypropylcellulose) (HPC) 92 % of control | dose: 400.0 mg/kg/injection, schedule: Q04DX002 (ip), vehicle: Klucel (hydroxypropylcellulose) (HPC) 95 % of control

C#CCn1c(=O)c2c(ncn2C)n(C)c1=O
inactive: dose: 6.25 mg/kg/injection, schedule: Q04DX003 (ip), vehicle: saline 100 % of control

CC12CCC(C3=C1OC(=O)C(c1ccccc1)(c1ccccc1)C3=O)C2(C)C (stereo unspecified)
inactive: dose: 100.0 mg/kg/injection, schedule: Q01DX001 (ip), vehicle: saline 105 % of control | dose: 100.0 mg/kg/injection, schedule: Q01DX009 (ip), vehicle: saline 94 % of control | [6] 103 % of control | dose: 200.0 mg/kg/injection, schedule: Q01DX001 (ip), vehicle: saline 113 % of control | dose: 200.0 mg/kg/injection, schedule: Q01DX009 (ip), vehicle: saline 102 % of control | [7] 97 % of control | dose: 400.0 mg/kg/injection, schedule: Q01DX001 (ip), vehicle: saline 97 % of control | dose: 400.0 mg/kg/injection, schedule: Q01DX009 (ip), vehicle: saline 100 % of control | [8] 103 % of control

Cc1cc(=O)c2c(=O)[nH][nH]c2[nH]1
inactive: [6] 95 % of control | [7] 105 % of control | [8] 94 % of control

CC(Br)C(=O)c1cccc2ccccc12 (stereo unspecified)
inactive: [1] 90 % of control | [2] 90 % of control | [3] 97 % of control and 98 % of control
